Measured values as given in patent US20240325398A1, “COMBINATION THERAPIES” (Infinity Pharmaceuticals, Inc., priority 2014, published 2024).

Tested on: DOHH2
Experiment: Compound 1 with dexamethasone, CellTiter-Glo viability 72 h, combination index
Format: cell-based
Conditions: DOHH2
Experimental: The effects of Compound 1 with dexamethasone were examined in a panel of cell lines. Cells were cultured and assayed as follows. Compound 1 was serially diluted with cell culture medium and various DMSO concentrations. The top concentration of Compound 1 exposed to cells was 3 uM for cell lines other than WSU-NHL and DOHH2. For WSU-NHL and DOHH2 cell lines, the top concentration of Compound 1 exposed to the cells was 0.3 uM. Dexamethasone was serially diluted in culture media and phosphate buffered saline (PBS). The top concentration of dexamethasone used on cells was 3 uM. Cells were at least 73% viable and were counted and diluted for plating at a density of about 92,000 cell/mL, 130 uL cells per well in 96 well plates for SUDHL6, Karpas 422, SUDHL4, WSU-NHL, RL, and DOHH2 cell lines. The SUDHL10 cell line was plated at a density of about 46,000 cells/mL, 130 uL cells per well in 96 well plates.
Various concentrations of Compound 1 and various combinations of dexamethasone were added to various wells of cells. Single agents (Compound 1 or dexamethasone alone) were also added to some wells of cells. Cells were incubated with compounds for 72 hours. To assay for effects of the compounds on cell viability, a CellTiter-Glo® luminescent cell viability assay (commercially available) was used. To each plate of cells, 100 uL CellTiter-Glo reagent was added, incubated, and luminescence quantified using a […].
The results for cell line DOHH2 are depicted in FIG. 11 and Table 11. […] Table 11 depicts combination index (CI) values for different combinations of dexamethasone/Compound 1 concentrations.

Measured: combination index (CI)

C[C@H](Nc1ncnc2[nH]cnc12)c1cc2cccc(Cl)c2c(=O)n1-c1ccccc1 [Compound 1, (S)-3-(1-((9H-purin-6-yl)amino)ethyl)-8-chloro-2-phenylisoquinolin-1(2H)-one]
C (C = 0.5 to <0.7): Compound 1 0.137174 nM + Dexamethasone 111.1111 nM | Compound 1 0.411523 nM + Dexamethasone 111.1111 nM | Compound 1 11.11111 nM + Dexamethasone 37.03704 nM
D (D = 0.7 to <1): Compound 1 3.703704 nM + Dexamethasone 37.03704 nM | Compound 1 33.33333 nM + Dexamethasone 12.34568 nM
A (A = 0.0001 to <0.3): Compound 1 0.137174 nM + Dexamethasone 333.3333 nM | Compound 1 0.137174 nM + Dexamethasone 1000 nM | Compound 1 0.137174 nM + Dexamethasone 3000 nM | Compound 1 0.411523 nM + Dexamethasone 1000 nM | Compound 1 0.411523 nM + Dexamethasone 3000 nM | Compound 1 1.234568 nM + Dexamethasone 333.3333 nM | Compound 1 1.234568 nM + Dexamethasone 1000 nM | Compound 1 1.234568 nM + Dexamethasone 3000 nM | Compound 1 3.703704 nM + Dexamethasone 111.1111 nM | Compound 1 3.703704 nM + Dexamethasone 333.3333 nM | Compound 1 3.703704 nM + Dexamethasone 1000 nM | Compound 1 3.703704 nM + Dexamethasone 3000 nM | Compound 1 11.11111 nM + Dexamethasone 111.1111 nM | Compound 1 11.11111 nM + Dexamethasone 333.3333 nM | Compound 1 11.11111 nM + Dexamethasone 1000 nM | Compound 1 11.11111 nM + Dexamethasone 3000 nM | Compound 1 33.33333 nM + Dexamethasone 37.03704 nM | Compound 1 33.33333 nM + Dexamethasone 111.1111 nM | Compound 1 33.33333 nM + Dexamethasone 333.3333 nM | Compound 1 33.33333 nM + Dexamethasone 1000 nM | Compound 1 33.33333 nM + Dexamethasone 3000 nM
E (E = >1): Compound 1 0.137174 nM + Dexamethasone 1.371742 nM | Compound 1 0.137174 nM + Dexamethasone 4.115226 nM | Compound 1 0.137174 nM + Dexamethasone 12.34568 nM | Compound 1 0.137174 nM + Dexamethasone 37.03704 nM | Compound 1 0.411523 nM + Dexamethasone 1.371742 nM | Compound 1 0.411523 nM + Dexamethasone 4.115226 nM | Compound 1 0.411523 nM + Dexamethasone 12.34568 nM | Compound 1 0.411523 nM + Dexamethasone 37.03704 nM | Compound 1 1.234568 nM + Dexamethasone 1.371742 nM | Compound 1 1.234568 nM + Dexamethasone 4.115226 nM | Compound 1 1.234568 nM + Dexamethasone 12.34568 nM | Compound 1 1.234568 nM + Dexamethasone 37.03704 nM | Compound 1 3.703704 nM + Dexamethasone 4.115226 nM | Compound 1 3.703704 nM + Dexamethasone 12.34568 nM | Compound 1 11.11111 nM + Dexamethasone 4.115226 nM | Compound 1 11.11111 nM + Dexamethasone 12.34568 nM
B (B = 0.3 to <0.5): Compound 1 0.411523 nM + Dexamethasone 333.3333 nM | Compound 1 1.234568 nM + Dexamethasone 111.1111 nM | Compound 1 3.703704 nM + Dexamethasone 1.371742 nM | Compound 1 11.11111 nM + Dexamethasone 1.371742 nM | Compound 1 33.33333 nM + Dexamethasone 1.371742 nM | Compound 1 33.33333 nM + Dexamethasone 4.115226 nM
